Species: Rattus norvegicus
Assay: Open TG-GATES - Regimen: Single
Assay type: toxicity, organism-based, Sprague-Dawley
Set-up: regimen Single, gender Male, age 6 weeks
Settings: in vivo, po, 300 mg/kg, route gavage, dose level Middle; for APTT / Bas / Eos / Fbg / Hb / Ht / Lym / MCH / MCHC / MCV / Mono / Neu / PT / Plat / RBC / Ret / WBC: tissue Blood; for KIDNEY_L / KIDNEY_R / KIDNEY_TOTAL: tissue Kidney; for LIVER: tissue Liver; for A/G / ALP / ALT / AST / BUN / CRE / Ca / Cl / DBIL / GLC / IP / K / LDH / Na / PL / RALB / TBIL / TC / TG / TP / gamma-GTP: tissue Plasma

`CN/C(=N/CCSCc1nc[nH]c1C)NC#N` [CIMETIDINE] gave a TERMINAL_BW (3 h) of 213.9 g, an APTT (3 h) of 17.7 s and a Bas (3 h) of 0%. It also gave an Eos (3 h) of 0.8%, a Fbg (3 h) of 212 mg/dL and a Hb (3 h) of 12.6 g/dL. For the same molecule, the Ht (3 h) was 37.5%, the Lym (3 h) was 77.6% and the MCH (3 h) was 21.5 pg. It also gave an MCHC (3 h) of 33.7%, an MCV (3 h) of 63.8 fL and a Mono (3 h) of 3%. The Neu (3 h) was 17.2%, the PT (3 h) was 12.8 s and the Plat (3 h) was 128.8 x10_4/uL. For the same molecule, the RBC (3 h) was 587.2 x10_4/ul, the Ret (3 h) was 8.2% and the WBC (3 h) was 84.3 x10_2/uL. It also gave a KIDNEY_L (3 h) of 1 g, a KIDNEY_R (3 h) of 0.9 g and a KIDNEY_TOTAL (3 h) of 1.9 g. The LIVER (3 h) was 10.5 g, the A/G (3 h) was 1.6 and the ALP (3 h) was 1248.6 IU/L. For the same molecule, the ALT (3 h) was 37.4 IU/L, the AST (3 h) was 68.6 IU/L and the BUN (3 h) was 10.8 mg/dL. It also gave a CRE (3 h) of 0.4 mg/dL, a Ca (3 h) of 10.7 mg/dL and a Cl (3 h) of 103.4 meq/L. For the same molecule, the DBIL (3 h) was 0.072 mg/dL, the GLC (3 h) was 191.2 mg/dL and the IP (3 h) was 8.8 mg/dL. It also gave a K (3 h) of 4.1 meq/L, an LDH (3 h) of 155.6 IU/L and a Na (3 h) of 140.8 meq/L. It also gave a PL (3 h) of 158 mg/dL, an RALB (3 h) of 3.3 g/dL and a TBIL (3 h) of 0.1 mg/dL. It also gave a TC (3 h) of 83 mg/dL, a TG (3 h) of 57 mg/dL and a TP (3 h) of 5.4 g/dL. The gamma-GTP (3 h) was 1.4 IU/L, the TERMINAL_BW (6 h) was 209.1 g and the APTT (6 h) was 19.5 s. It also gave a Bas (6 h) of 0%, an Eos (6 h) of 1% and a Fbg (6 h) of 224 mg/dL. The Hb (6 h) was 13 g/dL, the Ht (6 h) was 37.3% and the Lym (6 h) was 72.4%. It also gave an MCH (6 h) of 21.6 pg, an MCHC (6 h) of 34.8% and an MCV (6 h) of 62.2 fL. For the same molecule, the Mono (6 h) was 3.4%, the Neu (6 h) was 22.6% and the PT (6 h) was 13.4 s. For the same molecule, the Plat (6 h) was 134.4 x10_4/uL, the RBC (6 h) was 600.8 x10_4/ul and the Ret (6 h) was 7.9%. For the same molecule, the WBC (6 h) was 100.3 x10_2/uL, the KIDNEY_L (6 h) was 1 g and the KIDNEY_R (6 h) was 1 g. The KIDNEY_TOTAL (6 h) was 1.9 g, the LIVER (6 h) was 9.3 g and the A/G (6 h) was 1.7. For the same molecule, the ALP (6 h) was 926.2 IU/L, the ALT (6 h) was 38.2 IU/L and the AST (6 h) was 68 IU/L. It also gave a BUN (6 h) of 8.4 mg/dL, a CRE (6 h) of 0.4 mg/dL and a Ca (6 h) of 10.4 mg/dL. For the same molecule, the Cl (6 h) was 103.2 meq/L, the DBIL (6 h) was 0.068 mg/dL and the GLC (6 h) was 185 mg/dL. The IP (6 h) was 9.6 mg/dL, the K (6 h) was 3.8 meq/L and the LDH (6 h) was 148.6 IU/L. For the same molecule, the Na (6 h) was 141 meq/L, the PL (6 h) was 138.2 mg/dL and the RALB (6 h) was 3.4 g/dL. The TBIL (6 h) was 0.1 mg/dL, the TC (6 h) was 70.2 mg/dL and the TG (6 h) was 60 mg/dL. The TP (6 h) was 5.5 g/dL, the gamma-GTP (6 h) was 1.4 IU/L and the TERMINAL_BW (9 h) was 208.3 g. It also gave an APTT (9 h) of 20.6 s, a Bas (9 h) of 0% and an Eos (9 h) of 0.8%. It also gave a Fbg (9 h) of 214.4 mg/dL, a Hb (9 h) of 12.6 g/dL and a Ht (9 h) of 36.5%. It also gave a Lym (9 h) of 80.2%, an MCH (9 h) of 21.6 pg and an MCHC (9 h) of 34.5%. For the same molecule, the MCV (9 h) was 62.6 fL, the Mono (9 h) was 2.6% and the Neu (9 h) was 15.6%. For the same molecule, the PT (9 h) was 13.9 s, the Plat (9 h) was 126.2 x10_4/uL and the RBC (9 h) was 583.4 x10_4/ul. The Ret (9 h) was 7.8%, the WBC (9 h) was 70.7 x10_2/uL and the KIDNEY_L (9 h) was 1 g. It also gave a KIDNEY_R (9 h) of 1 g, a KIDNEY_TOTAL (9 h) of 1.9 g and an LIVER (9 h) of 8.8 g. It also gave an A/G (9 h) of 1.7, an ALP (9 h) of 807.2 IU/L and an ALT (9 h) of 31 IU/L. The AST (9 h) was 58.6 IU/L, the BUN (9 h) was 9.8 mg/dL and the CRE (9 h) was 0.4 mg/dL. The Ca (9 h) was 10.3 mg/dL, the Cl (9 h) was 102 meq/L and the DBIL (9 h) was 0.068 mg/dL. The GLC (9 h) was 189.8 mg/dL, the IP (9 h) was 10.3 mg/dL and the K (9 h) was 3.9 meq/L. It also gave an LDH (9 h) of 115.6 IU/L, a Na (9 h) of 141 meq/L and a PL (9 h) of 136 mg/dL. It also gave an RALB (9 h) of 3.4 g/dL, a TBIL (9 h) of 0.1 mg/dL and a TC (9 h) of 72.4 mg/dL. For the same molecule, the TG (9 h) was 36.4 mg/dL, the TP (9 h) was 5.5 g/dL and the gamma-GTP (9 h) was 1.6 IU/L. The TERMINAL_BW (24 h) was 223.6 g, the APTT (24 h) was 19.1 s and the Bas (24 h) was 0%. It also gave an Eos (24 h) of 0.8%, a Fbg (24 h) of 214.8 mg/dL and a Hb (24 h) of 13.5 g/dL. For the same molecule, the Ht (24 h) was 40.7%, the Lym (24 h) was 82.2% and the MCH (24 h) was 21.5 pg. The MCHC (24 h) was 33.3%, the MCV (24 h) was 64.5 fL and the Mono (24 h) was 2.2%. It also gave a Neu (24 h) of 13.6%, a PT (24 h) of 12.7 s and a Plat (24 h) of 126.7 x10_4/uL. The RBC (24 h) was 631.2 x10_4/ul, the Ret (24 h) was 6.5% and the WBC (24 h) was 86.6 x10_2/uL. The KIDNEY_L (24 h) was 1 g, the KIDNEY_R (24 h) was 1 g and the KIDNEY_TOTAL (24 h) was 2 g. The LIVER (24 h) was 10.7 g, the A/G (24 h) was 1.6 and the ALP (24 h) was 1056 IU/L. The ALT (24 h) was 35.8 IU/L, the AST (24 h) was 67.8 IU/L and the BUN (24 h) was 15.4 mg/dL. For the same molecule, the CRE (24 h) was 0.4 mg/dL, the Ca (24 h) was 10.9 mg/dL and the Cl (24 h) was 102.2 meq/L. For the same molecule, the DBIL (24 h) was 0.09 mg/dL, the GLC (24 h) was 200.8 mg/dL and the IP (24 h) was 7.4 mg/dL. The K (24 h) was 3.9 meq/L, the LDH (24 h) was 183.4 IU/L and the Na (24 h) was 140.8 meq/L. The PL (24 h) was 159.8 mg/dL, the RALB (24 h) was 3.5 g/dL and the TBIL (24 h) was 0.2 mg/dL. It also gave a TC (24 h) of 77.8 mg/dL, a TG (24 h) of 94 mg/dL and a TP (24 h) of 5.6 g/dL. It also gave a gamma-GTP (24 h) of 1.6 IU/L.
